Assay: xn = mol fraction of the nth substance listed
Conditions: Liquid; for mass density: Vibrating wire densiometer; for viscosity: Vibrating wire viscometry

CCCCCCCCCCCCCCCC [hexadecane] + O=C=O
Conditions	mass density [kg/m3]	viscosity [mPa·s]
298.14 K, 21810 kPa, x2 = 0.727	822.6	0.786
298.14 K, 22010 kPa, x2 = 0.727	822.8	0.787
298.14 K, 31030 kPa, x2 = 0.727	831.7	0.861
298.14 K, 41130 kPa, x2 = 0.727	840.7	0.943
298.16 K, 10920 kPa, x2 = 0.069	776.3	3.057
298.16 K, 11130 kPa, x2 = 0.069	776.5	3.075
298.16 K, 21440 kPa, x2 = 0.069	782.8	3.474
298.16 K, 30250 kPa, x2 = 0.069	787.6	3.87
298.18 K, 10440 kPa, x2 = 0.5877	802.3	1.003
298.18 K, 10670 kPa, x2 = 0.5877	802.7	0.998
298.18 K, 20560 kPa, x2 = 0.5877	811.8	1.107
298.18 K, 30070 kPa, x2 = 0.5877	819.7	1.219
298.18 K, 40380 kPa, x2 = 0.5877	827.4	1.344
323.12 K, 21230 kPa, x2 = 0.727	796.3	0.565
323.12 K, 21410 kPa, x2 = 0.727	796.3	0.565
323.12 K, 40330 kPa, x2 = 0.727	817.3	0.679
323.12 K, 60540 kPa, x2 = 0.727	835.2	0.806
323.12 K, 80280 kPa, x2 = 0.727	850.1	0.93
323.12 K, 100230 kPa, x2 = 0.727	863.2	1.064
323.12 K, 119920 kPa, x2 = 0.727	874.7	1.204
323.15 K, 10410 kPa, x2 = 0.069	759.1	1.83
323.15 K, 10420 kPa, x2 = 0.069	759.2	1.827
323.15 K, 10630 kPa, x2 = 0.5877	779	0.704
323.15 K, 10860 kPa, x2 = 0.5877	779.5	0.703
323.15 K, 20230 kPa, x2 = 0.069	765.7	2.061
323.15 K, 20850 kPa, x2 = 0.5877	790.2	0.786
323.15 K, 40110 kPa, x2 = 0.5877	807.6	0.947
323.15 K, 40860 kPa, x2 = 0.069	778.3	2.56
323.15 K, 60100 kPa, x2 = 0.5877	822.7	1.122
323.15 K, 60910 kPa, x2 = 0.069	788.7	3.13
323.15 K, 80840 kPa, x2 = 0.069	798.2	3.755
323.15 K, 99870 kPa, x2 = 0.069	806	4.474
373.08 K, 10380 kPa, x2 = 0.069	726.3	0.927
373.08 K, 12120 kPa, x2 = 0.069	728	0.947
373.08 K, 21470 kPa, x2 = 0.069	735.9	1.048
373.08 K, 26470 kPa, x2 = 0.727	752.5	0.365
373.08 K, 26600 kPa, x2 = 0.727	752.7	0.365
373.08 K, 40330 kPa, x2 = 0.069	749.9	1.263
373.08 K, 40830 kPa, x2 = 0.727	773	0.424
373.08 K, 60000 kPa, x2 = 0.727	794.6	0.503
373.08 K, 60300 kPa, x2 = 0.069	762.5	1.514

From the NIST ThermoML archive (doi:10.1021/acs.jced.6b00750)
